According to PubChem BioAssay AID248 (DTP/NCI, 2004):
Values joined by “and” are separate entries in the source; they are usually repeats but may differ in a detail not shown here. Identical values can stand only once. Inconclusive results and toxic doses are left out. Cut-off read from the data, not from the text of the source: active = T/C of 150% or more; inactive = T/C below 125%.

System: L1210 leukemia ip in BDF1 mice, survival T/C
Assay: NCI In Vivo Anticancer Drug Screen. Data for tumor model L1210 Leukemia (intraperitoneal) in B6D2F1 (BDF1) mice
Conditions: endpoint: mean survival time, higher = longer survival
In short: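 Transplanted-tumor mice were given test agent; controls received vehicle only. Survival readings from the two groups were divided (treated over control).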

[1] = dose: 25.0 mg/kg/injection, schedule: Q01DX009 (ip), vehicle: saline
[2] = dose: 50.0 mg/kg/injection, schedule: Q01DX009 (ip), vehicle: saline
[3] = dose: 100.0 mg/kg/injection, schedule: Q01DX009 (ip), vehicle: saline
[4] = dose: 100.0 mg/kg/injection, schedule: Q04DX003 (ip), vehicle: saline
[5] = dose: 200.0 mg/kg/injection, schedule: Q04DX003 (ip), vehicle: saline
[6] = dose: 400.0 mg/kg/injection, schedule: Q04DX003 (ip), vehicle: saline
[7] = dose: 100.0 mg/kg/injection, schedule: Q04DX003 (ip), vehicle: Klucel (hydroxypropylcellulose) (HPC)
[8] = dose: 200.0 mg/kg/injection, schedule: Q04DX003 (ip), vehicle: Klucel (hydroxypropylcellulose) (HPC)
[9] = dose: 400.0 mg/kg/injection, schedule: Q04DX003 (ip), vehicle: Klucel (hydroxypropylcellulose) (HPC)
[10] = dose: 100.0 mg/kg/injection, schedule: Q01DX001 (ip), vehicle: saline
[11] = dose: 200.0 mg/kg/injection, schedule: Q01DX001 (ip), vehicle: saline
[12] = dose: 400.0 mg/kg/injection, schedule: Q01DX001 (ip), vehicle: saline
[13] = dose: 100.0 mg/kg/injection, schedule: Q04DX003 (ip), vehicle: saline with Tween-80
[14] = dose: 200.0 mg/kg/injection, schedule: Q04DX003 (ip), vehicle: saline with Tween-80
[15] = dose: 100.0 mg/kg/injection, schedule: Q01DX001 (ip), vehicle: Klucel (hydroxypropylcellulose) (HPC)
[16] = dose: 200.0 mg/kg/injection, schedule: Q01DX001 (ip), vehicle: Klucel (hydroxypropylcellulose) (HPC)
[17] = dose: 400.0 mg/kg/injection, schedule: Q01DX001 (ip), vehicle: Klucel (hydroxypropylcellulose) (HPC)

Measured: T/C

CCOC(=O)N(Cc1ccccc1)C1CC1
inactive: [1] 95 % of control | dose: 25.0 mg/kg/injection, schedule: Q04DX003 (ip), vehicle: saline 104 % of control | [2] 104 % of control | [3] 102 % of control | [4] 104 % of control | dose: 200.0 mg/kg/injection, schedule: Q01DX009 (ip), vehicle: saline 98 % of control | [5] 104 % of control | dose: 400.0 mg/kg/injection, schedule: Q01DX009 (ip), vehicle: saline 103 % of control | [6] 102 % of control

CNC(=S)n1ncnc1N
inactive: [1] 102 % of control | [2] 114 % of control | [3] 109 % of control | [4] 104 % of control

O=C(NC/C(Br)=C/Br)Nc1c2ccccc2nc2ccccc12
inactive: dose: 10.0 mg/kg/injection, schedule: Q01DX009 (ip), vehicle: Klucel (hydroxypropylcellulose) (HPC) 96 % of control | dose: 20.0 mg/kg/injection, schedule: Q01DX009 (ip), vehicle: Klucel (hydroxypropylcellulose) (HPC) 107 % of control | dose: 40.0 mg/kg/injection, schedule: Q01DX009 (ip), vehicle: Klucel (hydroxypropylcellulose) (HPC) 89 % of control | dose: 75.0 mg/kg/injection, schedule: Q01DX009 (ip), vehicle: Klucel (hydroxypropylcellulose) (HPC) 89 % of control | [7] 102 % of control | [8] 94 % of control | [9] 94 % of control

O=C1CCC2(C/C1=N\Nc1ccccc1)OCCO2
inactive: [4] 100 % of control | [5] 96 % of control | [6] 100 % of control

COc1ccc2[nH]c3c(C)c4c(c(C)c3c2c1)CN(C)CC4
inactive: dose: 29.0 mg/kg/injection, schedule: Q01DX Z (ip), vehicle: saline 96 % of control | dose: 44.0 mg/kg/injection, schedule: Q01DX Z (ip), vehicle: saline 98 % of control | dose: 66.0 mg/kg/injection, schedule: Q01DX Z (ip), vehicle: saline 102 % of control | [10] 105 % of control | dose: 100.0 mg/kg/injection, schedule: Q01DX Z (ip), vehicle: saline 98 % of control | dose: 150.0 mg/kg/injection, schedule: Q01DX Z (ip), vehicle: saline 100 % of control | [11] 100 % of control | [12] 102 % of control

CC(SCc1ccccc1)C(=O)O (stereo not drawn)
inactive: [10] 97 % of control | [11] 94 % of control | [12] 92 % of control

O=c1oc(-c2cc([N+](=O)[O-])ccc2Cl)nc2ccccc12
inactive: [13] 100 % of control | [14] 93 % of control

CC(=O)CC(=O)C(F)(F)F.CC(=O)CC(=O)C(F)(F)F.[O]=[V]
inactive: dose: 25.0 mg/kg/injection, schedule: Q04DX003 (ip), vehicle: Klucel (hydroxypropylcellulose) (HPC) 100 % of control | dose: 50.0 mg/kg/injection, schedule: Q04DX003 (ip), vehicle: Klucel (hydroxypropylcellulose) (HPC) 107 % of control | [7] 96 % of control

COC(=O)C1C=CCC(C(=O)OC)C1 (stereo not drawn)
inactive: dose: 100.0 mg/kg/injection, schedule: Q01DX009 (ip), vehicle: saline with Tween-80 91 % of control | [13] 109 % of control | dose: 200.0 mg/kg/injection, schedule: Q01DX009 (ip), vehicle: saline with Tween-80 96 % of control | [14] 96 % of control | dose: 400.0 mg/kg/injection, schedule: Q01DX009 (ip), vehicle: saline with Tween-80 100 % of control | dose: 400.0 mg/kg/injection, schedule: Q04DX003 (ip), vehicle: saline with Tween-80 93 % of control

CCCCCCCCCCCC(=O)NC(=S)Nc1cccc(F)c1
inactive: [7] 95 % of control | [8] 90 % of control

C=CC[P+](CC)(c1ccccc1)c1ccccc1
inactive: dose: 3.13 mg/kg/injection, schedule: Q01DX009 (ip), vehicle: saline 97 % of control

O=c1ccn(Cc2cccc(Oc3ccccc3)c2)c(=O)[nH]1
inactive: dose: 100.0 mg/kg/injection, schedule: Q01DX001 (ip), vehicle: saline with Tween-80 92 % of control | dose: 200.0 mg/kg/injection, schedule: Q01DX001 (ip), vehicle: saline with Tween-80 93 % of control | dose: 400.0 mg/kg/injection, schedule: Q01DX001 (ip), vehicle: saline with Tween-80 92 % of control

COC(=O)C1CCC=C2C1CC1CC2C1(C)C (stereo not drawn)
inactive: [7] 97 % of control | [8] 103 % of control | [9] 95 % of control

O=C(c1ccccc1)C1NC1c1ccc([N+](=O)[O-])cc1 (stereo not drawn)
inactive: dose: 50.0 mg/kg/injection, schedule: Q01DX001 (ip), vehicle: Klucel (hydroxypropylcellulose) (HPC) 89 % of control | [15] 97 % of control | [16] 97 % of control | [17] 92 % of control

O=P(NO)(c1ccccc1)c1ccccc1
inactive: dose: 100.0 mg/kg/injection, schedule: Q01DX001 (ip), vehicle: carboxymethylcellulose (CMC) 92 % of control | dose: 200.0 mg/kg/injection, schedule: Q01DX001 (ip), vehicle: carboxymethylcellulose (CMC) 95 % of control | dose: 400.0 mg/kg/injection, schedule: Q01DX001 (ip), vehicle: carboxymethylcellulose (CMC) 95 % of control

CCC(=O)O[C@H]1CC[C@H]2[C@@H]3CCC4=CC(=O)CC[C@]4(C)[C@H]3CC[C@]12C
inactive: dose: 125.0 mg/kg/injection, schedule: Q01DX Z (sc), vehicle: steriod suspending solution 101 % of control and 106 % of control | dose: 250.0 mg/kg/injection, schedule: Q01DX Z (sc), vehicle: steriod suspending solution 97 % of control and 112 % of control | dose: 500.0 mg/kg/injection, schedule: Q01DX Z (sc), vehicle: steriod suspending solution 101 % of control and 103 % of control | dose: 500.0 mg/kg/injection, schedule: Q01DX Z (sc), vehicle: water 95 % of control | dose: 1000.0 mg/kg/injection, schedule: Q01DX Z (sc), vehicle: steriod suspending solution 100 % of control | dose: 1000.0 mg/kg/injection, schedule: Q01DX Z (sc), vehicle: water 97 % of control

COc1ccc(C(=O)c2ccc(Cl)s2)cc1
inactive: dose: 100.0 mg/kg/injection, schedule: Q04DX003 (ip), vehicle: gum acacia 96 % of control | dose: 200.0 mg/kg/injection, schedule: Q04DX003 (ip), vehicle: gum acacia 91 % of control | dose: 400.0 mg/kg/injection, schedule: Q04DX003 (ip), vehicle: gum acacia 89 % of control

CC1(C)CCO/C(=C\C(=O)N2Cc3cc4ccccc4nc3C2)N1
inactive: [15] 88 % of control | [16] 86 % of control | [17] 90 % of control

O=C(Nc1cc(S(=O)(=O)O)cc2cc(S(=O)(=O)O)c(N=Nc3ccc([As](=O)(O)O)cc3)c(O)c12)c1ccc([N+](=O)[O-])cc1
inactive: dose: 200.0 mg/kg/injection, schedule: Q04DX003 (ip), vehicle: saline sonified 92 % of control

C/C(CC(O)(C(F)(F)F)C(F)(F)F)=N\N1CCCCCC1
inactive: [7] 97 % of control | [8] 103 % of control | [9] 94 % of control

CC[n+]1cccc2ccccc21
inactive: [10] 97 % of control

Nc1ncnn1Cc1ccccc1
inactive: [10] 96 % of control | [4] 101 % of control | [11] 97 % of control | [5] 106 % of control | [12] 100 % of control | [6] 101 % of control

Cc1cc(Nc2ccc(C)c(Cl)c2)nc(N)n1
inactive: dose: 100.0 mg/kg/injection, schedule: Q01DX Z (ip), vehicle: methylcellulose (MC) 89 % of control

Cc1cc(C)c(CC(C)(CO)CO)cc1CC(C)(CO)CO
inactive: dose: 100.0 mg/kg/injection, schedule: Q01DX009 (ip), vehicle: Klucel (hydroxypropylcellulose) (HPC) 93 % of control | dose: 200.0 mg/kg/injection, schedule: Q01DX009 (ip), vehicle: Klucel (hydroxypropylcellulose) (HPC) 87 % of control | dose: 300.0 mg/kg/injection, schedule: Q01DX009 (ip), vehicle: Klucel (hydroxypropylcellulose) (HPC) 106 % of control
